Reference: US20260231951A1, “COATED SEEDS AND METHODS TO IMPROVE CROPS” (MONTANA STATE UNIVERSITY, priority 2023, published 2026)

Legend:
wheat [1] = test: Greenhouse comparison of wheat growth after 25 mM seed treatments of three dithiophosphates; assay type: in vivo; conditions: 25 mM seed treatment in diluted SPRET, 7% w/v, 21 days after planting
Experimental: (§1) All greenhouse experiments took place under a 16-hour photoperiod with temperatures set to 22° C. day and 18° C. night.
Dithiophosphates have different chemical properties depending on the length of their chains. For instance, the length of the carbon chain influences solubility of the chemical and the rate of H2S release. Growth of wheat when treated with 25 mM seed treatments of three different DTPs: dibutyldithiophosphate (C4), dioctyldithiophosphate (C8), and dihexyldecycldithiophosphate (C16) was evaluated. Chemical amount per seed used in 25 mM seed treatment applications is described in Table 1. Seed was treated with a 25 mM solution in which the DTP was dissolved in a low concentration of SPRET non-ionic surfactant (Method 1 below). After seeds had dried, they were sown in moist potting soil at a rate of 4 seeds per pot and then not watered for 5 days. There were 5 reps for each treatment where each rep was the average from a single pot. Measurements were collected 21 days after planting. Tiller number was improved for each of the three DTP treatments but was most improved with the dibutyl dithiophosphate (C4) source (FIG. 4).
(§2) Two seed treatment methods were examined: 1) Seed treated with DBDTP applied using a non-ionic surfactant and 2) Seed treated with DBDTP added to commonly used pesticide seed treatments (Example 8). For this testing, DBDTP was used as the dithiophosphate source. Note that the seed treatment concentration and volume is not standard across plant species. Each species tolerates a different level of DBDTP and the volume used to treat each species is dependent on seed size. After adding treatment to seed, seed was rolled for 5 minutes. Seed was then exposed to air and allowed to dry completely prior to planting.
(§3) For this method, the non-ionic wetter/spreader surfactant used for all treatments was SPRET (Helena Holding Company). The lowest recommended SPRET concentration was selected from the product label (1.25 mL/L H2O).

MT 457 green field pea = test: Field trial of DBDTP treated green field pea (with pesticide seed treatments); assay type: in vivo
Experimental: (§4) For this method, DBDTP amounts were combined with commonly used seed treatment pesticides using the recommended, crop-specific amount on the product label. The pesticides that were used include Obvius Plus Specimen fungicide seed treatment (BASF Corporation), Dyna-Shield imidacloprid 5 (Loveland Products), and Cruiser Maxx Vibrance Cereals (Syngenta). Pesticide amounts correspond to species-specific recommended amounts on the product label. After treatments were added to seeds, seed was rolled 5 minutes and allowed to dry completely.
Seed treatment levels consisted of 0, 52, 103, 207, and 413 mM DBDTP (Table 6). Seed was treated with a 1.7% w/v solution that included DBDTP and seed treatment pesticides Dyna-Shield and Obvius (Table 6). After seed was treated and dried, it was inoculated with N Charge Inoculant for Pea, Vetch, and Lentil (Verdesian; 1.40 g/450 g seed) and planted within the same day as inoculating. For each seed treatment level, 15 reps were planted using a complete, randomized block design. Each rep consisted of a 10′, 2 row plot with 60 seeds planted per row. Mature seed was harvested for each plot. […] Seed yield was increased under all treatment levels tested, in a range of 0.04-0.31 mg/seed.

wheat [2] = test: Greenhouse tests to identify ideal DBDTP seed treatment concentrations for wheat (SPRET surfactant); assay type: in vivo
Experimental: as §1, §2, §3
Greenhouse tests to identify ideal DBDTP seed treatment concentrations: A 7% w/v solution was used for each DBDTP treatment to achieve an even coating of wheat seeds. For each DBDTP level, small amounts of DBDTP were dissolved in the SPRET solution according to Table 2 and seed was treated with a 7% w/v solution. Five seeds were sown in 6″ pots and averaged for a single rep. Each DBDTP treatment had three replications.

wheat [3] = test: Wheat germination test (cigar roll method) in aqueous DBDTP; assay type: in vivo; conditions: wheat seeds in germination paper rolls, 7 days, compared to the 0 mg/L control; 41.2 μM-1.03 mM
Experimental: Wheat: For germination tests, 50 wheat seeds were placed within a roll of germination paper using the cigar roll method (Bai C, 2013, J Exp Bot, 64:1745-1753) with n=50. Rolls were placed upright in tubs containing varying concentrations of DBDTP in water, such that the end of the roll was submerged 3″ into the solution. Lids were placed on tubs, then shoot and root length measurements were recorded after 7 days.

wheat [4] = test: Greenhouse trial, wheat with slow-release fertilizer and aqueous delivery of DBDTP; assay type: in vivo; conditions: 5 and 25 mg/pot DBDTP in 200 mL water, in the presence of fertilizer (Osmocote), 4 weeks after planting
Experimental: as §1
Wheat: To test whether the germination test growth enhancement response observed in wheat would still occur in the presence of added nitrogen fertilizer, wheat was grown under varying levels of slow-release fertilizer (Osmocote) and then watered in with an aqueous solution of DBDTP (see Carter J M, et al., 2019, J. Agric Food Chem. 67:11883-11892). Osmocote was added to potting soil according to the label to achieve low or medium fertilization rates. Prior to planting, pots were watered and seed was sown into moist potting soil. Immediately after planting, each pot was watered with 200 mL water containing, 0, 5, 25, 50, 100, or 500 mg dissolved DBDTP. Pots were not watered for ~5 days after planting to avoid flushing DBDTP out of the pot.

Cherry Belle F1 radish = test: Field trial of DBDTP treated radish seed; assay type: in vivo
Experimental: Seed treatment levels consisted of 0, 12.5, 25, 50, and 100 mM DBDTP (Table 5) and seed was treated with a 7% w/v solution of diluted SPRET surfactant and DBDTP. For each seed treatment level, 15 reps were planted using a complete, randomized block design. Each rep consisted of a single 3′ row plot. Plots were seeded at a rate of 36 seeds/row and thinned to 4-6″ apart. Root fresh weight was averaged for each row and each row was considered a single rep. Root biomass was increased compared to the control at the 12.5 mM treatment level (FIG. 10). This corresponded to 0.001 mg/seed. Radish root growth likely be enhanced with an application rate in a range of 0.001-0.005 mg DBDTP/seed.

Avondale lentil = test: Greenhouse test of DBDTP seed treatment concentration for lentil growth; assay type: in vivo
Experimental: Testing was carried out in the greenhouse. Seed was treated according to Table 4. Prior to planting, pots were watered and seed was sown into moist potting soil. Pots were not watered for 5 days after planting to avoid flushing DBDTP out of the pot. […] Seed was treated with a 1.5% w/v solution of diluted SPRET surfactant with addition of DBDTP. Early plant growth was boosted between treatment concentrations 0.188 M-1.7 M. A likely beneficial treatment range lies between 0.03-0.26 mg/seed.

pea [5] = test: Pea germination test (cigar roll method) in aqueous DBDTP; assay type: in vivo; conditions: at all levels of DBDTP tested, 7 days
Experimental: Pea: For germination tests, 25 pea seeds were placed within each roll of germination paper using the cigar method described above. Measurements were recorded after 7 days with n=250.

chickpea = test: Greenhouse test of DBDTP seed treatment concentration for chickpea growth (pesticide slurry); assay type: in vivo
Experimental: as §4
This test took place in the greenhouse. Seed was treated according to Table 7. Prior to planting, pots were watered and seed was sown into moist potting soil. Pots were not watered for 5 days after planting to avoid flushing DBDTP out of the pot. […] An ideal range likely falls between 0.05-0.46 mg DBDTP/seed.

MT Dagmar spring wheat = test: Field trial of DBDTP treated wheat seed; assay type: in vivo
Experimental: Seed treatment levels consisted of 0, 12.5, 25, 50, and 100 mM DBDTP as in Table 2 and applied in a 7% w/v solution. All seed for each treatment (1000 g) was treated at one time and then once dried it was weighed out for planting in single rows. For each seed treatment level, 15 reps were planted using a complete, randomized block design. Each rep consisted of a 10′, 2 row plot. Plots were seeded at a rate of 10 g/row. Seed was tractor planted, and prior to planting, the field was worked, and N was delivered to achieve 390 Ibs urea/acre. […] The 12.5 mM and 25 mM seed treatments appear to be the best concentrations to boost grain yield as well, as these treatments yielded an average of 3.5-5% higher respectively than the 0 mM control (FIG. 7B). An ideal treatment range encompasses the 12.5 mM and 25 mM treatments and high end of ideal concentrations likely lies between the 25 mM and 50 mM treatments.

pea [6] = test: Greenhouse trial, pea with aqueous delivery of DBDTP; assay type: in vivo; conditions: 4 weeks after planting
Experimental: as §1
Pea: Prior to planting, pots were watered and seed was sown into moist potting soil. Immediately after planting, each pot was watered with 200 mL water containing, 0, 5, 25, 50, 100, or 500 mg dissolved DBDTP. Pots were not watered for ~5 days after planting to avoid flushing DBDTP out of the pot.

wheat [7] = test: Greenhouse test of DBDTP added to Cruiser Maxx Vibrance Cereals slurry for wheat; assay type: in vivo
Experimental: as §4
DBDTP was added to a slurry of Cruiser Maxx Vibrance Cereals according to Table 8. Prior to the addition of DBDTP, the pesticide was diluted 1:1 Cruiser:H2O. DBDTP was added to the diluted Cruiser, such that 2.1 mg DBDTP was added to 62.5 μL to treat 5 g of seed. This experiment was planted in the greenhouse, and at 14 days after planting, the 25 mM treated seed was taller and had more tillers than the 0 mM control (FIG. 13). This experiment was planted in two separate greenhouses-one where the lights had been recently replaced with new LED lights, and one where the old light system remained. […] The main difference observed between the lights was that growth was much enhanced under the new lights, boosting tillering overall. This means that tillering differences due to DBDTP treatment may be observed earlier under the new LED light system.

corn = conditions: addition to a commercial liquid starter fertilizer applied in furrow with the seeds; cited from earlier work
Provider bush beans = test: Field trial of DBDTP treated green bean seed; assay type: in vivo
Experimental: Seed treatment levels consisted of 0, 175 mM, 350 mM, 700 mM, and 1.4 M DBDTP (Table 3) and seed was treated with a 5% w/v solution of diluted SPRET surfactant and DBDTP. For each seed treatment level, 15 reps were planted using a complete, randomized block design. Each rep consisted of a 3′, 2 row plot with 18 seeds planted per row. Entire plants were harvested at maturity and biomass was averaged for each row. Each row was considered a single rep. For each plot of treated seed, biomass was increased compared to the 0 mM control (FIG. 8A). […] Depending on whether the goal was to increase seed weight, or plant biomass, an ideal treatment range encompasses the 175 mM, 350 mM, and 700 mM treatments. These concentrations correspond to a range of 0.07-0.28 mg DBDTP/seed.

[8] = seed treatments of up to 50 mM DBDTP, 35 days after planting
[9] = 25 mM in Cruiser Maxx Vibrance Cereals slurry, 14 days after planting, vs 0 mM control

Compound: CCCCOP(=S)(S)OCCCC [DBDTP, dibutyl dithiophosphate]
- tiller number (wheat [1]): most improved
- seed yield, best treatment (MT 457 green field pea; 413 mM treated seed): highest yielding
- seed yield (MT 457 green field pea; each plot of treated seed (52, 103, 207, 413 mM), with Dyna-Shield and Obvius, vs control): increased
- Likely ideal DBDTP range, pea (range in which seed yield was increased) (MT 457 green field pea; seed treatment, pea): 0.04-0.31 mg/seed
- germination (wheat [2]; seed treatment doses higher than 50 mM, 7% w/v in SPRET): reduce germination
- plant height (wheat [2]; [8]): enhanced
- tiller number (wheat [2]; [8]): enhanced
- DBDTP concentration range with positive growth response (shoot and root length) (wheat [3]): 10 to 250 mg/L
- tiller number (wheat [4]): boost to tiller number
- root biomass (root fresh weight) (Cherry Belle F1 radish; 12.5 mM treatment level (0.001 mg/seed), vs control): increased
- Likely ideal DBDTP range, radish (Cherry Belle F1 radish; seed treatment, radish): 0.001-0.005 mg/seed
- growth response of lentil (Avondale lentil; around the 375 mM treatment level, 14 days after planting, 1.5% w/v SPRET): positive DBDTP growth response
- Likely ideal (beneficial) DBDTP range, lentil (Avondale lentil; seed treatment, lentil): 0.03-0.26 mg/seed
- growth response of pea seedlings (pea [5]): positive growth response
- growth response of chickpea (chickpea; 100 mM treatment level in pesticide slurry, 14 days after planting): positive DBDTP growth response
- Likely ideal DBDTP range, chickpea (chickpea; seed treatment, chickpea): 0.05-0.46 mg/seed
- grain yield, average increase over the 0 mM control (MT Dagmar spring wheat; 12.5 mM seed treatment): 3.5%
- grain yield, average increase over the 0 mM control (MT Dagmar spring wheat; 25 mM seed treatment): 5%
- plant growth and yield (MT Dagmar spring wheat; 100 mM DBDTP seed treatment): significantly diminished
- tiller number (MT Dagmar spring wheat; 12.5 and 25 mM seed treatment, 4 weeks after planting, vs 0 mM control): significantly higher
- growth response (pea vine length), best doses (pea [6]; 100 and 500 mg/pot DBDTP): greatest boost to growth
- growth response (pea vine length) (pea [6]; each DBDTP treatment (5, 25, 50, 100, 500 mg/pot in 200 mL water)): positive response
- plant height (wheat [7]; [9]): taller
- tiller number (wheat [7]; [9]): more tillers
- performance against control in both greenhouses (new LED lights, old light system) (wheat [7]; 25 mM treated seed): outperformed the control
- corn yield (corn): increases corn yield
- plant biomass (Provider bush beans; each plot of treated seed (175 mM, 350 mM, 700 mM, 1.4 M), harvested at maturity, vs 0 mM control): increased
- seed pod weight (Provider bush beans; lowest level tested (175 mM), vs control): increased
- Likely ideal DBDTP range, green bean (Provider bush beans; seed treatment, green bean): 0.07-0.28 mg/seed

Compound: CCCCCCCCOP(=S)(S)OCCCCCCCC [dioctyldithiophosphate (C8), dioctyldithiophosphate]
- tiller number (wheat [1]): improved

Compound: dihexyldecycldithiophosphate [dihexyldecycldithiophosphate (C16)]
- tiller number (wheat [1]): improved
